Earlier results, collected in patent US20230330191A1, “METHODS OF STIMULATING BONE GROWTH WITH ABALOPARATIDE AND DENOSUMAB” (Radius Health, Inc., priority 2020, published 2023).
One block for each molecule: values may come before it.

Assays:
[1] = system: ovariectomy-induced osteopenia animal models
[2] = in vivo
RANKL:OPG ratio = settings: Makino, CTI 2018
[3] = in vivo; remark: listed apart in the source

Molecule: CC[C@H](C)[C@H](NC(=O)[C@H](CCC(=O)O)NC(=O)[C@H](CO)NC(=O)[C@@H](NC(=O)[C@@H](N)CO)C(C)C)C(=O)N[C@@H](CCC(N)=O)C(=O)N[C@@H](CC(C)C)C(=O)N[C@@H](CCSC)C(=O)N[C@@H](Cc1cnc[nH]1)C(=O)N[C@@H](CC(N)=O)C(=O)N[C@@H](CC(C)C)C(=O)NCC(=O)N[C@@H](CCCCN)C(=O)N[C@@H](Cc1cnc[nH]1)C(=O)N[C@@H](CC(C)C)C(=O)N[C@@H](CC(N)=O)C(=O)N[C@@H](CO)C(=O)N[C@@H](CCSC)C(=O)N[C@@H](CCC(=O)O)C(=O)N[C@@H](CCCN=C(N)N)C(=O)N[C@H](C(=O)N[C@@H](CCC(=O)O)C(=O)N[C@@H](Cc1c[nH]c2ccccc12)C(=O)N[C@@H](CC(C)C)C(=O)N[C@@H](CCCN=C(N)N)C(=O)N[C@@H](CCCCN)C(=O)N[C@@H](CCCCN)C(=O)N[C@@H](CC(C)C)C(=O)N[C@@H](CCC(N)=O)C(=O)N[C@@H](CC(=O)O)C(=O)N[C@H](C(=O)N[C@@H](Cc1cnc[nH]1)C(=O)N[C@@H](CC(N)=O)C(=O)N[C@@H](Cc1ccccc1)C(=O)O)C(C)C)C(C)C [teriparatide]
- total hip BMD (women; 2 years of teriparatide after 2 years of denosumab, versus mean BMD at end of denosumab treatment (Leder, Lancet 2015)): remains below the mean BMD
- BMD in the hip and femoral neck (women; switching from denosumab to teriparatide): substantial BMD loss

Molecule: Denosumab: fully human monoclonal IgG antibody with affinity and specificity for human receptor activator of nuclear factor kappa-B ligand (RANKL)
- effects of denosumab withdrawal on bone (women; after withdrawal (Cummings JBMR 2017)): dramatic increased bone remodeling, rapid prominent bone loss, and multiple vertebral fractures

- potential to induce hypercalcemia compared to teriparatide [3]: lower potential to induce hypercalcemia
Molecule: [Glu22,25, Leu23,28,31, Aib29, Lys26,30]hPTHrP(1-34)NH2 [abaloparatide]
- bone loss (bone anabolic activity) [1]: complete reversal of bone loss
- incidence of the most common adverse reactions (hypercalciuria, dizziness, nausea, headache, palpitations, fatigue, upper abdominal pain, vertigo) [2]: > 2%
- RANKL and OPG expression, RANKL:OPG ratio (RANKL:OPG ratio): upregulates RANKL and reduces OPG, increasing the RANKL:OPG ratio
- increases in BMD compared with cathepsin K inhibitor drugs or PTH-like drugs such as teriparatide [3]: substantially faster and greater
